Test results: PMC10784468 (Nature Communications, 2024)
Several values for one entry are separate records, joined by “and”; a condition that tells them apart may be missing. Equal entries are not always repeated. Where two headings read alike, the source gives them in different places. Positions of bridges follow the written chain, without caps; N, C: chain ends. Residues, ends and D or L forms follow the SMILES beside them. *: point of attachment. X1 = O=C(O)c1ccc(-c2c3nc(c(-c4ccc(C(=O)O)cc4)c4ccc([nH]4)c(-c4ccc(C(=O)*)cc4)c4nc(c(-c5ccc(C(=O)O)cc5)c5ccc2[nH]5)C=C4)C=C3)cc1; X2 = O=C(O)C/C(=C/C(=O)*)C(=O)O

Experiments:
[1] = Critical aggregation concentration (pyrene probe, I338/I335); format: physicochemical; conditions: for I338/I335 (pyrene): pyrene 6 μM, emission 393 nm
Procedure: The CACs were determined using pyrene as a fluorescent probe. In brief, 50 μL of pyrene solution in acetone (480 μM) was added to a 5 mL centrifuge tube, followed by adding a series of peptide-porphyrin conjugate solutions with different concentrations, and the tube was kept overnight to evaporate the acetone completely, the concentration of pyrene being fixed at 6 μM at last. The excitation spectra of the solutions were recorded with the emission wavelength fixing at 393 nm, and the intensity ratio (I338/I335) was calculated as a function of the concentration. The CAC was determined based on the intersection point at low concentration on the plot.

HUVEC cells = format: cell-based; conditions: HUVEC cells, pH=7.4
Procedure: Supplementary Fig. 27. Viability of HUVEC cells after treated with Gi -F (pH=7.4) and Gi-F-CAA (pH=7.4) at different
concentrations for 48 h (n=3 experimental repeats). Experiment was independently repeated three times with
(1 picture or pasted object on this page, not shown here)

EJ cells [2] = assay: Cellular imaging (uptake) by CLSM; format: cell-based; conditions: Cy7-labeled, 40 μM, 2 h
Procedure: Initially, EJ cells (5 × 10^5) were cultured in confocal dish with a CO2 incubator overnight at 37 °C. Subsequently, the EJ cells were incubated with Cy labeled Gi-F-CAA (40 μM, pH = 7.4) and Cy labeled Gi-F-CAA (40 μM, pH = 6.5) for 2 h followed by washing with PBS for three times.

EJ cells [3] = assay: Intracellular Fe2+ ions detection; format: cell-based
Procedure: (§1) Initially, EJ cells (5 × 10^5) were cultured in confocal dish with a CO2 incubator overnight at 37 °C. […] Afterwards, EJ cells were washed with PBS for 3 times and replaced with culture mediums.

EJ cells [4] = assay: Intracellular ROS detection (DCFH-DA); format: cell-based; conditions: pH 6.5, 40 μM, 8 h
Procedure: as §1

EJ cells [5] = assay: Intracellular LPO fluorescence imaging (C11-BODIPY); format: cell-based; conditions: pH 6.5, 40 μM, 8 h
Procedure: Initially, EJ cells (5 × 10^5) were cultured in confocal dish with a CO2 incubator overnight at 37 °C. […] Next, EJ cells were collected and washed with PBS for 3 times.

PTGS2 = assay: Tumor PTGS2 content detection; format: in vivo, BALB/c nude mice; conditions: EJ tumor tissues, 8 mg/kg i.v., versus PBS, Gi-F and Gi-F-SA
Procedure: EJ tumor tissues were collected under euthanasia at the end of treatment and washed with PBS for 3 times. Afterwards, the immunofluorescence analyses of Prostaglandin-Endoperoxide Synthase 2 (PTGS2) expression were performed with Wuhan Servicebio Technology Co., Ltd.

For `CC(C)C[C@H](NC(=O)c1ccc(-c2c3nc(c(-c4ccc(C(=O)O)cc4)c4ccc([nH]4)c(-c4ccc(C(=O)O)cc4)c4nc(c(-c5ccc(C(=O)O)cc5)c5ccc2[nH]5)C=C4)C=C3)cc1)C(=O)N[C@@H](CCCCNC(=O)/C=C(/CC(=O)O)C(=O)O)C(=O)N[C@@H](CC(C)C)C(=O)N[C@@H](CCCCN)C(=O)N[C@@H](CC(C)C)C(=O)N[C@@H](CCCCNC(=O)/C=C(/CC(=O)O)C(=O)O)C(=O)NCC(=O)N[C@@H](C)C(=O)N[C@H]1CSSC[C@@H](C(=O)N2CCC[C@H]2C(=O)N[C@H](C(=O)O)C(C)C)NC(=O)[C@@H]2CCCN2C(=O)[C@H](Cc2ccc(O)cc2)NC(=O)[C@H](CC(C)C)NC(=O)[C@@H]2CCCN2C(=O)[C@H](CC(C)C)NC(=O)[C@H](Cc2c[nH]c3ccccc23)NC(=O)[C@H](CC(N)=O)NC1=O` [Gi-F-CAA] (X1-LK(X2)LKLK(X2)GACNWLPLYPCPV-OH; disulfide 9-17; C-terminus assumed), the “I338/I335 (pyrene)” value ([1]; conjugate 0.97656 μM) was 0.974, the “I338/I335 (pyrene)” value ([1]; conjugate 1.95313 μM) was 0.9716 and the “I338/I335 (pyrene)” value ([1]; conjugate 3.90625 μM) was 0.9744. For the same compound, the “I338/I335 (pyrene)” value ([1]; conjugate 7.8125 μM) was 0.9774, the “I338/I335 (pyrene)” value ([1]; conjugate 15.625 μM) was 0.9762 and the “I338/I335 (pyrene)” value ([1]; conjugate 31.25 μM) was 0.9729. The “I338/I335 (pyrene)” value ([1]; conjugate 62.5 μM) was 0.9783, the “I338/I335 (pyrene)” value ([1]; conjugate 125 μM) was 0.9903 and the “I338/I335 (pyrene)” value ([1]; conjugate 250 μM) was 1.02. For the same compound, the “I338/I335 (pyrene)” value ([1]; conjugate 500 μM) was 1.0656, the “I338/I335 (pyrene)” value ([1]; conjugate 1000 μM) was 1.12 and the “critical aggregation concentration (CAC)” value ([1]; pyrene probe, I338/I335, PBS 0.01 M, pH 7.4) was 149.5 µM. For the same compound, the “Cell viability of HUVEC” value (HUVEC cells; log concentration (μM) 0, replicate 1) was 101.3%, the “Cell viability of HUVEC” value (HUVEC cells; log concentration (μM) 0, replicate 2) was 99.35% and the “Cell viability of HUVEC” value (HUVEC cells; log concentration (μM) 0, replicate 3) was 93.55%. The “Cell viability of HUVEC” value (HUVEC cells; log concentration (μM) 0.30103, replicate 1) was 97.11%, the “Cell viability of HUVEC” value (HUVEC cells; log concentration (μM) 0.30103, replicate 2) was 93.48% and the “Cell viability of HUVEC” value (HUVEC cells; log concentration (μM) 0.30103, replicate 3) was 94.74%. The “Cell viability of HUVEC” value (HUVEC cells; log concentration (μM) 0.60206, replicate 1) was 97.32%, the “Cell viability of HUVEC” value (HUVEC cells; log concentration (μM) 0.60206, replicate 2) was 86.5% and the “Cell viability of HUVEC” value (HUVEC cells; log concentration (μM) 0.60206, replicate 3) was 95.44%. For the same compound, the “Cell viability of HUVEC” value (HUVEC cells; log concentration (μM) 0.90309, replicate 1) was 84.68%, the “Cell viability of HUVEC” value (HUVEC cells; log concentration (μM) 0.90309, replicate 2) was 94.46% and the “Cell viability of HUVEC” value (HUVEC cells; log concentration (μM) 0.90309, replicate 3) was 84.96%. The “Cell viability of HUVEC” value (HUVEC cells; log concentration (μM) 1.20412, replicate 1) was 84.75%, the “Cell viability of HUVEC” value (HUVEC cells; log concentration (μM) 1.20412, replicate 2) was 89.22% and the “Cell viability of HUVEC” value (HUVEC cells; log concentration (μM) 1.20412, replicate 3) was 82.31%. The “Cell viability of HUVEC” value (HUVEC cells; log concentration (μM) 1.50515, replicate 1) was 77.42%, the “Cell viability of HUVEC” value (HUVEC cells; log concentration (μM) 1.50515, replicate 2) was 83.56% and the “Cell viability of HUVEC” value (HUVEC cells; log concentration (μM) 1.50515, replicate 3) was 82.86%. For the same compound, the “Cell viability of HUVEC” value (HUVEC cells; log concentration (μM) 1.80618, replicate 1) was 75.32%, the “Cell viability of HUVEC” value (HUVEC cells; log concentration (μM) 1.80618, replicate 2) was 80.77% and the “Cell viability of HUVEC” value (HUVEC cells; log concentration (μM) 1.80618, replicate 3) was 73.08%. For the same compound, the “Cell viability of HUVEC” value (HUVEC cells; log concentration (μM) 2.10721, replicate 1) was 65.68%, the “Cell viability of HUVEC” value (HUVEC cells; log concentration (μM) 2.10721, replicate 2) was 64.77% and the “Cell viability of HUVEC” value (HUVEC cells; log concentration (μM) 2.10721, replicate 3) was 61.91%. The “Cell viability of HUVEC” value (HUVEC cells; log concentration (μM) 2.40824, replicate 1) was 56.53%, the “Cell viability of HUVEC” value (HUVEC cells; log concentration (μM) 2.40824, replicate 2) was 48.01% and the “Cell viability of HUVEC” value (HUVEC cells; log concentration (μM) 2.40824, replicate 3) was 52.83%. The “cellular uptake (CLSM) at pH 6.5” value (EJ cells [2]; pH 6.5) was “obvious fluorescence signal was observed in the cytoplasm”, the “cellular uptake (CLSM) at pH 7.4” value (EJ cells [2]; pH 7.4) was “barely detected” and the “intracellular Fe^2+ (FerroOrange fluorescence), pH 6.5” value (EJ cells [3]; EJ cells, pH 6.5, 40 μM, 8 h) was “substantially enhanced fluorescence”. The “intracellular Fe^2+ (FerroOrange fluorescence), pH 7.4” value (EJ cells [3]; EJ cells, pH 7.4, 8 h) was “no remarkable fluorescence”, the “Concentrations of Fe2+ ions” value (EJ cells [3]; pH=6.5, replicate #1) was 22.485 ng/104cells and the “Concentrations of Fe2+ ions” value (EJ cells [3]; pH=6.5, replicate #2) was 27.487 ng/104cells. For the same compound, the “Concentrations of Fe2+ ions” value (EJ cells [3]; pH=6.5, replicate #3) was 29.009 ng/104cells, the “Concentrations of Fe2+ ions” value (EJ cells [3]; pH=7.4, replicate #1) was 12.656 ng/104cells and the “Concentrations of Fe2+ ions” value (EJ cells [3]; pH=7.4, replicate #2) was 15.918 ng/104cells. For the same compound, the “Concentrations of Fe2+ ions” value (EJ cells [3]; pH=7.4, replicate #3) was 12.221 ng/104cells, the “intracellular ROS (DCFH-DA)” value (EJ cells [4]) was “Apparent green fluorescence” and the “intracellular LPO (BODIPY 581/591 C11)” value (EJ cells [5]) was “extensive accumulation of LPO”. For the same compound, the “PTGS2 levels of tumor tissues” value (PTGS2) was “elevation” and the DLS size distribution, Number (%) was 0.000191% and 14% and 7.4%.
